Data as given in patent US9592221B2, “Antibacterial agents: aryl myxopyronin derivatives” (priority 2012, dated 2017).
≈ marks a conversion by molar mass, not a printed value.

Key:
[1] = target: M. tuberculosis RNA polymerase core enzyme, M. tuberculosis σ^A (Mycobacterium tuberculosis, UniProt P9WGY7+P9WGY9); test: Fluorescence-detected RNA polymerase assay, M. tuberculosis RNA polymerase; assay type: biochemical; details: read-out: IC50 M. tuberculosis RNAP
[2] = system: Staphylococcus aureus ATCC 12600; test: MIC, spiral gradient endpoint assay, S. aureus ATCC 12600; assay type: cell-based; details: ATCC12600; Staphylococcus aureus ATCC 12600
[3] = target: E. coli RNA polymerase σ^70 holoenzyme (Escherichia coli, UniProt P0A8T7+P0A8V2); test: Fluorescence-detected RNA polymerase assay, E. coli RNA polymerase; assay type: biochemical; details: read-out: IC50 E. coli RNAP
[4] = system: Escherichia coli D21f2tolC; test: MIC, spiral gradient endpoint assay, E. coli D21f2tolC; assay type: cell-based; details: Escherichia coli, D21F2TOLC, read-out: MIC E. coli D21f2toIC
[5] = system: Acinetobacter baumannii ATCC 19606; test: MIC, spiral gradient endpoint assay, A. baumannii; assay type: cell-based; details: ATCC19606; Acinetobacter baumannii ATCC 19606
Yersinia pestis C092 = test: microbe, parasite or virus in culture; assay type: cell-based; details: Yersinia pestis, C092, read-out: MIC Y. pestis C092
[6] = system: Burkholderia pseudomallei Human/Blood/OH/US/1994; test: microbe, parasite or virus in culture; assay type: cell-based; details: Burkholderia pseudomallei, read-out: MIC B. pseudomallei Human/Blood/OH
Burkholderia mallei CHN7 = test: microbe, parasite or virus in culture; assay type: cell-based; details: Burkholderia mallei, CHN7, read-out: MIC B. mallei CHN7
Brucella melitensis 16M = test: microbe, parasite or virus in culture; assay type: cell-based; details: Brucella melitensis, 16M, read-out: MIC B. melitensis 16M
[7] = system: Bacillus anthracis Vollum 1b; test: microbe, parasite or virus in culture; assay type: cell-based; details: Bacillus anthracis, VOLLUM1B, read-out: MIC B. anthracis Vollum-1b
[8] = system: Mycobacterium tuberculosis H37Rv; test: MIC, microplate Alamar Blue assay, M. tuberculosis; assay type: cell-based
[9] = system: Francisella tularensis SCHU4; test: microbe, parasite or virus in culture; assay type: cell-based; details: Francisella tularensis, SCHU4, read-out: MIC F. tularensis SCHU4

E. coli RNA polymerase σ^70 holoenzyme, sequence (P0A8T7 whole entry): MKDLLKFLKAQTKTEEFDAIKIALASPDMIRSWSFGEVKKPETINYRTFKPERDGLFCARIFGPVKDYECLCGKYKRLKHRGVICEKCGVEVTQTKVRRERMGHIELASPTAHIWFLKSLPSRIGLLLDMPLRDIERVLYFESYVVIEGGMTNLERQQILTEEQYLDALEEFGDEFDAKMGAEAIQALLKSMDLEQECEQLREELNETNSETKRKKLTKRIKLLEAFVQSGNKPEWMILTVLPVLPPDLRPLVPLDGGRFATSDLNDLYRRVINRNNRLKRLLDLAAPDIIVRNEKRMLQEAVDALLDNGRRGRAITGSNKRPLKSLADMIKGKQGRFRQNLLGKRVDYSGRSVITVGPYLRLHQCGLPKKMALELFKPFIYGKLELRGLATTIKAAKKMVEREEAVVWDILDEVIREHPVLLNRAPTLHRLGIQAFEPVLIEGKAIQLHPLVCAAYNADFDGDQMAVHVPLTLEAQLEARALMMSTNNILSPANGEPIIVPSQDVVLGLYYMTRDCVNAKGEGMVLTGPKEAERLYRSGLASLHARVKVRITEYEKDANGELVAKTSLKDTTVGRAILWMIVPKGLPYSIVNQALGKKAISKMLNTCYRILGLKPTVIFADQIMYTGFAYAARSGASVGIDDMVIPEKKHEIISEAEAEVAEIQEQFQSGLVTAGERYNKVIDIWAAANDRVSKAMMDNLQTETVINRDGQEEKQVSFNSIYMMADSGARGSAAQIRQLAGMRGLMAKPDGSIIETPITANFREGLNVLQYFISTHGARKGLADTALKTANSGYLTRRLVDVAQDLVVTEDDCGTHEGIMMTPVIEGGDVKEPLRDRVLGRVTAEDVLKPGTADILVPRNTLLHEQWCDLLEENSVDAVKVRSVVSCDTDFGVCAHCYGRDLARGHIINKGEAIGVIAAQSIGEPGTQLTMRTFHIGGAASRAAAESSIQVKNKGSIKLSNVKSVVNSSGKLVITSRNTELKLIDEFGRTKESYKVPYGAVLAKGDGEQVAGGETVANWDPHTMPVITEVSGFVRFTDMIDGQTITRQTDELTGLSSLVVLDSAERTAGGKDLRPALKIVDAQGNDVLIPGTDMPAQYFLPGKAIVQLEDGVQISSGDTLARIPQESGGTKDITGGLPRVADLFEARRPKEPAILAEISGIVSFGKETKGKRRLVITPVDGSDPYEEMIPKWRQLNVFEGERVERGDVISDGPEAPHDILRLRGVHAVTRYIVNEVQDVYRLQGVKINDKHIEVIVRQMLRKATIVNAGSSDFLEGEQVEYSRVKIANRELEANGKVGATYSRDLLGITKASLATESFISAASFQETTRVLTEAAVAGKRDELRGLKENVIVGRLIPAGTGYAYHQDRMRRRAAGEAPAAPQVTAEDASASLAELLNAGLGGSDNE
E. coli RNA polymerase σ^70 holoenzyme, sequence (P0A800 whole entry, further chain): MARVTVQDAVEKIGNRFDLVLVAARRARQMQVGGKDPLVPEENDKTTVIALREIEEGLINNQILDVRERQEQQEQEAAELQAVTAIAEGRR
E. coli RNA polymerase σ^70 holoenzyme, sequence (P0A8V2 whole entry): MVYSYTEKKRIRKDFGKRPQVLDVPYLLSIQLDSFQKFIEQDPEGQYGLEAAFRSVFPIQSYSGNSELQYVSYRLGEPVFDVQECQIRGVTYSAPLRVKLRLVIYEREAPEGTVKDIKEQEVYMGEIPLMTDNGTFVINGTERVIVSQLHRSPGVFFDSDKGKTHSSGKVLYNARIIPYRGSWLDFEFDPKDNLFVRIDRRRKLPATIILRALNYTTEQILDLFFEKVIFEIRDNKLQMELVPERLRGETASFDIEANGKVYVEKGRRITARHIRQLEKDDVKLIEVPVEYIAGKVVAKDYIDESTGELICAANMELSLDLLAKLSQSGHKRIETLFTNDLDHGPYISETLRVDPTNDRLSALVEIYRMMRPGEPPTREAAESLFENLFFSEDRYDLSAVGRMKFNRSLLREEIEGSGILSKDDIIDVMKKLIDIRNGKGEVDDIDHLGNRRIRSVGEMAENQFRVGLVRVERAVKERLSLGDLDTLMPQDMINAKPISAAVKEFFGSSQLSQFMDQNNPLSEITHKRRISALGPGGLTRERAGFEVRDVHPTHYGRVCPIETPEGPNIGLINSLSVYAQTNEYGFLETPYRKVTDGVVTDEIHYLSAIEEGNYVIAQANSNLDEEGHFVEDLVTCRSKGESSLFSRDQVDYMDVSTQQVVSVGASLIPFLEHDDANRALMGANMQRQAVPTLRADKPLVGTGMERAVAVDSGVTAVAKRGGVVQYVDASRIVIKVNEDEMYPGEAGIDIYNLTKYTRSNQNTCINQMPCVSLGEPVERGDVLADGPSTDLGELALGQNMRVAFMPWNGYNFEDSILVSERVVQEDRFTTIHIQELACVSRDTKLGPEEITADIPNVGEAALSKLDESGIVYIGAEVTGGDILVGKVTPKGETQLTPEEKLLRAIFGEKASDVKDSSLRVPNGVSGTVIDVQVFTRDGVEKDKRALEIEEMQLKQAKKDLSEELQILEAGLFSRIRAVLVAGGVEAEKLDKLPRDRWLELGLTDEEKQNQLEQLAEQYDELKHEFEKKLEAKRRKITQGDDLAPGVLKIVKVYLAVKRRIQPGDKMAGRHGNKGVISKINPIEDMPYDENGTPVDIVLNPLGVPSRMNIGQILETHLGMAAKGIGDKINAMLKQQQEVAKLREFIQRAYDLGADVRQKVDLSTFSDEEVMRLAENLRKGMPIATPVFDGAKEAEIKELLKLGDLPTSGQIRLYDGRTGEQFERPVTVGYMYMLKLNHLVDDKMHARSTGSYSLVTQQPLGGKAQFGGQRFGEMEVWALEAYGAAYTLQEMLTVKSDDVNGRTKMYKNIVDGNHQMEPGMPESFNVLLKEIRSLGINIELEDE
E. coli RNA polymerase σ^70 holoenzyme, sequence (P00579 whole entry, further chain): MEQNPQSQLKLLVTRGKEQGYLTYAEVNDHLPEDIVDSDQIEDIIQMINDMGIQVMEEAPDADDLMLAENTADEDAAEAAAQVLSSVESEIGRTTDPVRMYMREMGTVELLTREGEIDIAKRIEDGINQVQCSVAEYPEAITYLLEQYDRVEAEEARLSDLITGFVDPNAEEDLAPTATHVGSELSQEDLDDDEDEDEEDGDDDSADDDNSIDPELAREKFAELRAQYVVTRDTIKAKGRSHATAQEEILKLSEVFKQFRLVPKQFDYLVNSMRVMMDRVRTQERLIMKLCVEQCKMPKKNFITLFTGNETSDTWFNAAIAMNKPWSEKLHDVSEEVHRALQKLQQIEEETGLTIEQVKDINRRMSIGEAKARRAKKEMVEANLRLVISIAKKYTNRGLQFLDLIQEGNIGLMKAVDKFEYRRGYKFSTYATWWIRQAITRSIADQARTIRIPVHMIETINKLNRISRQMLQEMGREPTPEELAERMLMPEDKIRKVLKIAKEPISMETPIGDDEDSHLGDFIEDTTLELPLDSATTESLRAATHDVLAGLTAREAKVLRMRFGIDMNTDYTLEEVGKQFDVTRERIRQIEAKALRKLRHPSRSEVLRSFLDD
E. coli RNA polymerase σ^70 holoenzyme, sequence (P0A7Z4 whole entry, further chain): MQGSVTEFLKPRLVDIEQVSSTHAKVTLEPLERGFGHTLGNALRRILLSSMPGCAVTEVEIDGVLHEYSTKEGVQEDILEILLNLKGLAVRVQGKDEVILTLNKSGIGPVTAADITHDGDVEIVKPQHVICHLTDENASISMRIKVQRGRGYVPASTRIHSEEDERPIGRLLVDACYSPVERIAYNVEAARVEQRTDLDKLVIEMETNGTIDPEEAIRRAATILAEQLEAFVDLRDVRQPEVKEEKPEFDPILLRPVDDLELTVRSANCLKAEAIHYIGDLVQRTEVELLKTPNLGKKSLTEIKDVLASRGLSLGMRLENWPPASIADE

Row | SMILES | IC50 [1] [nM] | MIC [2] [µg/mL] | IC50 [3] [nM] | MIC [4] [µg/mL] | MIC [5] [µg/mL] | MIC (Yersinia pestis C092) [µg/mL] | MIC [6] [µg/mL] | MIC (Burkholderia mallei CHN7) [µg/mL] | MIC (Brucella melitensis 16M) [µg/mL] | MIC [7] [µg/mL] | MIC [8] [µg/mL] | MIC [9] [µg/mL]
1 | COC(=O)N/C=C/CCC(C)c1cc(O)c(C(=O)C(C)=Cc2ccc(CCCO)s2)c(=O)o1 (mixture of isomers) [APY94, methyl ((1E)-5-(4-hydroxy-3-(3-(5-(3-hydroxypropyl)thiophen-2-yl)-2-methylacryloyl)-2-oxo-2H-pyran-6-yl)hex-1-en-1-yl)carbamate] | > 6000 | > 40 | > 6000 | 3 | > 40 |  |  |  |  |  |  | 
2 | COC(=O)N/C=C/CCC(C)c1cc(O)c(C(=O)C(C)=Cc2ccc(CCC(F)(F)F)cc2C)c(=O)o1 (mixture of isomers) [APY127, methyl ((1E)-5-(4-hydroxy-3-(2-methyl-3-(2-methyl-4-(3,3,3-trifluoropropyl)phenyl)acryloyl)-2-oxo-2H-pyran-6-yl)hex-1-en-1-yl)carbamate] |  | 2 | 70 | 0.4 | > 40 | 50 | 50 | 50 | 50 | 6 | 50 | > 50
3 | CCCOc1ccc(C=C(C)C(=O)c2c(O)cc(C(C)CC/C=C/NC(=O)OC)oc2=O)c(C)c1 (mixture of isomers) [APY128, methyl ((1E)-5-(4-hydroxy-3-(2-methyl-3-(2-methyl-4-propoxyphenyl)acryloyl)-2-oxo-2H-pyran-6-yl)hex-1-en-1-yl)carbamate] |  | 4 | 500 | 0.6 | > 40 | > 50 | > 50 | > 50 | > 50 | 10 | 30 | > 50
4 | CCCCOc1ccc(C=C(C)C(=O)c2c(O)cc(C(C)CC/C=C/NC(=O)OC)oc2=O)c(C)c1 (mixture of isomers) [APY129, methyl ((1E)-5-(3-(3-(4-butoxy-2-methylphenyl)-2-methylacryloyl)-4-hydroxy-2-oxo-2H-pyran-6-yl)hex-1-en-1-yl)carbamate] |  | 2 | 50 | 0.3 | 40 | 30 | > 50 | 50 | 10 | 3 | 30 | > 50
5 | COC(=O)N/C=C/CCC(C)c1cc(O)c(C(=O)C(C)=Cc2ccc(OC(C)C)cc2C)c(=O)o1 (mixture of isomers) [APY130, methyl ((1E)-5-(4-hydroxy-3-(3-(4-isopropoxy-2-methylphenyl)-2-methylacryloyl)-2-oxo-2H-pyran-6-yl)hex-1-en-1-yl)carbamate] |  | 3 | 200 | 2 | > 40 | > 50 | > 50 | > 50 | > 50 | 10 | 30 | > 50
6 | COC(=O)N/C=C/CCC(C)c1cc(O)c(C(=O)C(C)=Cc2ccc(OCC(F)F)cc2C)c(=O)o1 (mixture of isomers) [APY131, methyl ((1E)-5-(3-(3-(4-(2,2-difluoroethoxy)-2-methylphenyl)-2-methylacryloyl)-4-hydroxy-2-oxo-2H-pyran-6-yl)hex-1-en-1-yl)carbamate] |  | 8 | 200 | 0.7 | > 40 | > 50 | > 50 | > 50 | > 50 | 30 | 30 | > 50
7 | COC(=O)N/C=C/CCC(C)c1cc(O)c(C(=O)C(C)=Cc2ccc(OCC(F)F)cc2)c(=O)o1 (mixture of isomers) [APY132, methyl ((1E)-5-(3-(3-(4-(2,2-difluoroethoxy)phenyl)-2-methylacryloyl)-4-hydroxy-2-oxo-2H-pyran-6-yl)hex-1-en-1-yl)carbamate] |  | 5 | 200 | 0.7 | > 40 | > 50 | > 50 | > 50 | 30 | 30 | 10 | > 50
8 | CCCCc1ncc(C=C(C)C(=O)c2c(O)cc(C(C)CC/C=C/NC(=O)OC)oc2=O)s1 (mixture of isomers) [APY136, methyl ((1E)-5-(3-(3-(2-butylthiazol-5-yl)-2-methylacryloyl)-4-hydroxy-2-oxo-2H-pyran-6-yl)hex-1-en-1-yl)carbamate] |  | 1 | 20 | 0.2 | > 40 | 10 | 50 | 30 | 6 | 10 | 6 | > 50
9 | COC(=O)N/C=C/CCC(C)c1cc(O)c(C(=O)C(C)=Cc2cnc(CCC(C)C)s2)c(=O)o1 (mixture of isomers) [APY137, methyl ((1E)-5-(4-hydroxy-3-(3-(2-isopentylthiazol-5-yl)-2-methylacryloyl)-2-oxo-2H-pyran-6-yl)hex-1-en-1-yl)carbamate] |  | 1 | 10 | 0.08 | > 40 | 10 | 30 | 10 | 6 | 3 | 6 | 50
10 | COC(=O)N/C=C/CCC(C)c1cc(O)c(C(=O)C(C)=Cc2ccc(OCC(F)F)s2)c(=O)o1 (mixture of isomers) [APY138, methyl ((1E)-5-(3-(3-(5-(2,2-difluoroethoxy)thiophen-2-yl)-2-methylacryloyl)-4-hydroxy-2-oxo-2H-pyran-6-yl)hex-1-en-1-yl)carbamate] |  | 10 | 300 | 0.5 | > 40 | 50 | > 50 | > 50 | 50 | 50 | 10 | > 50
11 | COC(=O)N/C=C/CCC(C)c1cc(O)c(C(=O)C(C)=Cc2ccc(OCCC(F)(F)F)s2)c(=O)o1 (mixture of isomers) [APY139, methyl ((1E)-5-(4-hydroxy-3-(2-methyl-3-(5-(3,3,3-trifluoropropoxy)thiophen-2-yl)acryloyl)-2-oxo-2H-pyran-6-yl)hex-1-en-1-yl)carbamate] |  | 2 | 30 | 0.2 | > 40 | 10 | > 50 | 50 | 10 | 6 | 6 | > 50
12 | CCC(C)Oc1ccc2c(c1)cc(C=C(C)C(=O)c1c(O)cc(C(C)CC/C=C/NC(=O)OC)oc1=O)n2C (stereo not drawn) [APY122, methyl ((1E)-5-(3-(3-(5-(sec-butoxy)-1-methyl-1H-indol-2-yl)-2-methylacryloyl)-4-hydroxy-2-oxo-2H-pyran-6-yl)hex-1-en-1-yl)carbamate] |  | > 40 | 100 | 0.5 (≈ 0.932 µM) | > 40 | > 50 | > 50 | > 50 | > 50 | 50 (≈ 93.2 µM) | > 50 | 50 (≈ 93.2 µM)
